From publication PMC12787074, “Involvement of Multiple Ion Channels and Receptors in Mediating the Insecticidal and Repellent Actions of Limonene” (International Journal of Molecular Sciences, 2025)
One block for each molecule: values may come before it.

What was measured:
Assay type in all cases: cell-based
[1] = target: T1, AaegRdl1-1 (Rdl, resistance to dieldrin GABA receptor) (Aedes aegypti, UniProt Q16896); experiment: two-electrode voltage clamp in Xenopus oocytes; agonist-evoked chloride current
T1 construct: AaegRdl1-1 clone expressed in Xenopus oocytes

[2] = target: T1, AaegRdl1-1 (Rdl, resistance to dieldrin GABA receptor); experiment: two-electrode voltage clamp in Xenopus oocytes; potentiation of […] GABA current
[3] = target: T1, AaegRdl1-1 (Rdl, resistance to dieldrin GABA receptor); experiment: two-electrode voltage clamp in Xenopus oocytes; block of GABA current

T1 sequence (Q16896 entry or part of it): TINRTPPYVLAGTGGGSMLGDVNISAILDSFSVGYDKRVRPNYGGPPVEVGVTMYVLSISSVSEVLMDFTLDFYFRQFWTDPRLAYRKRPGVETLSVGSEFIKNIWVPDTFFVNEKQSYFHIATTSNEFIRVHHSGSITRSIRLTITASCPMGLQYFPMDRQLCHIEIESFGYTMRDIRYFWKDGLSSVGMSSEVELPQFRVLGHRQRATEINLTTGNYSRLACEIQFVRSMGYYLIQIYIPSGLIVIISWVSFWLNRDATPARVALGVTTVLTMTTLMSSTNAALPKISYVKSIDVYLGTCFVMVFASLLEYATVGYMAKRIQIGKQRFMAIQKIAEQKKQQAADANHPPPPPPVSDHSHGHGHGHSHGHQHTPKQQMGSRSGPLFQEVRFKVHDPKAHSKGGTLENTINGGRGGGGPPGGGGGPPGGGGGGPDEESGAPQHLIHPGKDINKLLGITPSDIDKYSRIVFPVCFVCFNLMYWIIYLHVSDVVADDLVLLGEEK

EC50 [1]: 204 ± 18.3 µM
Compound: NCCCC(=O)O [GABA]

EC50 [2]: 43.3 ± 4.6 µM
Compound: C=C(C)[C@H]1CC=C(C)CC1 [limonene]

Compound: N#Cc1nn(-c2c(Cl)cc(C(F)(F)F)cc2Cl)c(N)c1[S+]([O-])C(F)(F)F (stereo not drawn) [fipronil]
two-electrode voltage clamp in Xenopus oocytes; block of GABA current [3]: IGABA was blocked by the application of a positive control, fipronil, as expected (Supplementary Figure S2)
